One test concerns Dictyostelium discoideum. Briefly: Ability to inhibit growth of Dictostelium discoideum. In kind it is functional, organism-based.
The next test is filed under the species Rattus norvegicus. Briefly: Bone resorption activity in rats. It is filed as functional.

As for `NCCCC(P(=O)(O)O)P(=O)(O)O`, in the test with Dictyostelium discoideum, the IC50 amounted to 44 µM.
`Cc1cccnc1NC(P(C)(=O)O)P(=O)(O)O` (stereo unspecified) gave an LED in the test filed under Rattus norvegicus of 1 mgP kg-1.
Molecule `O=P(O)(O)C(Nc1ccccn1)P(=O)(O)O` yielded an LED in the test listed under Rattus norvegicus of 0.01 mgP kg-1. In addition, the IC50 with Dictyostelium discoideum is 12 µM.
The like results for `O=P(O)(O)C(O)(CCc1cccnc1)P(=O)(O)O` were, in that order, 1 mgP kg-1 and 310 µM.
On the same counts, the results for `O=P(O)(O)C(CNc1ccccn1)P(=O)(O)O` are 0.01 mgP kg-1 and 15 µM.
`CCN(c1ccncc1)C(P(=O)(O)O)P(=O)(O)O` showed an LED in the test filed under Rattus norvegicus of 0.1 mgP kg-1.
For the molecule `O=P(O)(O)C1(P(=O)(O)O)Cc2cccnc2C1`, the IC50 in the test with Dictyostelium discoideum was 1200 µM.
In turn, `C[n+]1cccc2c1CC(P(=O)(O)O)(P(=O)(O)O)C2` showed an LED in the test listed under Rattus norvegicus of 0.1 mgP kg-1.
The molecule `O=P(O)(O)C(O)(C1CCc2ccncc21)P(=O)(O)O` (stereo unspecified) gave an LED in the test filed under Rattus norvegicus of 0.01 mgP kg-1. In addition, in the test on Dictyostelium discoideum, half-maximal inhibition (IC50) was put at 36 µM.
With `Cc1ccc(NC(P(C)(=O)O)P(=O)(O)O)nc1` (stereo unspecified), the LED in the test filed under Rattus norvegicus came to 1 mgP kg-1.
On to `O=P(O)(O)C(CCc1ccccn1)P(=O)(O)O`, for which the IC50 with Dictyostelium discoideum amounted to 150 µM.
`O=P(O)(O)C1(P(=O)(O)O)CC2CCCNC2C1` (stereo unspecified) showed an LED in the test filed under Rattus norvegicus of 0.01 mgP kg-1. In the test on Dictyostelium discoideum, this molecule yielded an IC50 of 13 µM.
Turning to `C[n+]1ccc(CC(O)(P(=O)(O)O)P(=O)(O)O)cc1`, the LED in the test listed under Rattus norvegicus was found to be 0.01 mgP kg-1.
Same read-out and setting: the value for `O=P(O)(O)C(O)(Cc1ccccn1)P(=O)(O)O` was 0.001 mgP kg-1.
Still for that read-out and setting: for `O=P(O)(O)C(Nc1ccc(Cl)cn1)P(=O)(O)O` the value was 0.01 mgP kg-1.
For `Cc1cccnc1NC(P(=O)(O)O)P(=O)(O)O`, the LED in the test listed under Rattus norvegicus is recorded as 0.001 mgP kg-1. Inhibition with Dictyostelium discoideum was half-maximal at 9 µM (IC50).
`Cc1ccnc(NC(P(=O)(O)O)P(=O)(O)O)c1` returned an LED in the test listed under Rattus norvegicus of 0.001 mgP kg-1.
Same read-out and setting: the value for `O=P(O)(O)C(O)(Cc1ccncc1)P(=O)(O)O` was 0.01 mgP kg-1; that for `Cc1cccc(NC(P(=O)(O)O)P(=O)(O)O)n1` was 0.001 mgP kg-1.
Regarding `O=P(O)(O)C(Cc1cccnc1)P(=O)(O)O`, the LED in the test filed under Rattus norvegicus is on record as 0.01 mgP kg-1.
For the molecule `Cc1cccnc1NCC(P(=O)(O)O)P(=O)(O)O`, the LED in the test listed under Rattus norvegicus is recorded as 1 mgP kg-1. The same molecule came in with an IC50 with Dictyostelium discoideum of 40 µM.
On to `CCCCP(=O)(O)C(Nc1ncccc1C)P(=O)(O)O` (stereo unspecified), for which, in the test listed under Rattus norvegicus, the LED was 1 mgP kg-1.
As to `O=P(O)(O)C(C1CCc2cccnc21)P(=O)(O)O` (stereo unspecified), the LED in the test listed under Rattus norvegicus amounted to 0.1 mgP kg-1. Further, inhibition with Dictyostelium discoideum was half-maximal at 38 µM (IC50).
In turn, `O=P(O)(O)C(Nc1ncccn1)P(=O)(O)O` registered an LED in the test listed under Rattus norvegicus of 0.001 mgP kg-1.
Still for that read-out and setting: for `CCCCCCC[n+]1ccc(CC(O)(P(=O)(O)O)P(=O)(O)O)cc1` the value was 0.01 mgP kg-1; for `O=P(O)(O)C(O)(CCc1ccncc1)P(=O)(O)O`, 1 mgP kg-1.
Turning to `Cc1ccc(NC(P(=O)(O)O)P(=O)(O)O)nc1`, the LED in the test listed under Rattus norvegicus came out at 0.001 mgP kg-1.
Same read-out and setting: the value for `C[n+]1cccc(CC(O)(P(=O)(O)O)P(=O)(O)O)c1` was 0.0001 mgP kg-1; that for `C[n+]1ccccc1CC(O)(P(=O)(O)O)P(=O)(O)O` was 0.01 mgP kg-1.
In the test filed under Rattus norvegicus, `NCCCC(O)(P(=O)(O)O)P(=O)(O)O` [ALENDRONIC ACID] displayed an LED of 0.001 mgP kg-1. Further, half-maximal inhibition in the test with Dictyostelium discoideum (IC50) required 32 µM.
The like results for `CC(O)(P(=O)(O)O)P(=O)(O)O` [ETIDRONIC ACID] were, in that order, 1 mgP kg-1 and 380 µM.
The molecule `CCCCCN(C)CCC(O)(P(=O)(O)O)P(=O)(O)O` [IBANDRONIC ACID] registered an LED in the test listed under Rattus norvegicus of 0.0001 mgP kg-1.
As to `O=P(O)(O)C(NC1CCCCCC1)P(=O)(O)O` [INCADRONIC ACID], the LED in the test listed under Rattus norvegicus stood at 0.001 mgP kg-1.
Still for that read-out and setting: for `O=P(O)(O)C(O)(Cc1cnc2ccccn12)P(=O)(O)O` [MINODRONIC ACID] the value was 0.0001 mgP kg-1.
Take `NCCC(O)(P(=O)(O)O)P(=O)(O)O` [PAMIDRONIC ACID]: the LED in the test filed under Rattus norvegicus was 0.03 mgP kg-1. Also, in the test on Dictyostelium discoideum, the IC50 amounted to 167 µM.
`O=P(O)(O)C(Cc1ccccn1)P(=O)(O)O` [PIRIDRONIC ACID] had an LED in the test filed under Rattus norvegicus of 0.01 mgP kg-1. The half-inhibitory concentration (IC50) in the test on Dictyostelium discoideum was 20 µM.
On the same counts, the results for `O=P(O)(O)C(O)(Cc1cccnc1)P(=O)(O)O` [RISEDRONIC ACID] are 0.0003 mgP kg-1 and 13 µM.
`O.O=P(O)(O)C(O)(Cn1ccnc1)P(=O)(O)O` [ZOLEDRONIC ACID]: the LED in the test listed under Rattus norvegicus is on record as 0.0001 mgP kg-1.

The record behind these values is ChEMBL document CHEMBL1135492, “An investigation of bone resorption and Dictyostelium discoideum growth inhibition by bisphosphonate drugs” (J Med Chem, 2002).
